Test results reported in US20130203718A1 (priority 2010, published 2013).
Like-named read-outs stand apart in the source and are kept apart here.

How the values were obtained:
[1] = target: T1, hGR (Homo sapiens, UniProt P04150); assay: APRn selectivity: transactivation in HEK293T cells transiently expressing hGR; type: cell-based; details: for GR Antagonist efficacy (%): dexamethasone 10^−9 M; for Emax: HEK-293T, read-out: GR Agonist efficacy (%)
T1 construct: expressed in transfected cells; host or cells: HEK 293T
T1 sequence (P04150 1-777): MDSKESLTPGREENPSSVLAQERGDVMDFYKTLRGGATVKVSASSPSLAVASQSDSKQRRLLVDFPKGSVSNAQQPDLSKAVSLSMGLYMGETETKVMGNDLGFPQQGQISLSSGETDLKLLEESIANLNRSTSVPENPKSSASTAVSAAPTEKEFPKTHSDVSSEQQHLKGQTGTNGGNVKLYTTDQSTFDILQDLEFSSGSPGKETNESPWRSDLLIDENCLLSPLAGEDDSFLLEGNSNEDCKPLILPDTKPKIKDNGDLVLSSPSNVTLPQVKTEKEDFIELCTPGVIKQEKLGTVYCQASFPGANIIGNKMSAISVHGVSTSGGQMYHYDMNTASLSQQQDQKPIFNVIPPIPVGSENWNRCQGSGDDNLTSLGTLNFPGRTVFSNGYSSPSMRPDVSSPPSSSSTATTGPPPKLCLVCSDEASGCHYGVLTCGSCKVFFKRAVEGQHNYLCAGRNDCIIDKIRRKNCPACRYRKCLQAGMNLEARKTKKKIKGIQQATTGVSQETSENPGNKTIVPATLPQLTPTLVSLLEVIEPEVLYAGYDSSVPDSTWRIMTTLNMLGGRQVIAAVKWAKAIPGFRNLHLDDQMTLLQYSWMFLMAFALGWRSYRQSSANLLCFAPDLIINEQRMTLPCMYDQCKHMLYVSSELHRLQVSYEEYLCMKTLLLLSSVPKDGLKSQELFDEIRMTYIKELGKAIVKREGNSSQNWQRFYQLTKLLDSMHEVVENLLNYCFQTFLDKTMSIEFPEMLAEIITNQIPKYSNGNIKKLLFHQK
Method: Measurement of the APRn Selectivity in HEK 293T.
The HEK-293T cells were cultured and transfected according to the method described above for the PR transactivation assays. The expression vectors pcDNA-hAR, kindly provided by G. A. Coetzee, pchGR (Hellal-Levy, C et al. FEBS Lett 1999, 464, 9), and pchMR (Fagart, J. et al. EMBO J. 1998, 17, 3317) were used for studying the ability of APRn to activate or inactivate the AR, GR and MR, respectively. For each transfection assays, 2 μg of the expression vector was used together with 7 μg of the GRE2-Luc reporter vector. Dihydrotestosterone (DHT), dexamethasone (Dex) and Aldosterone (Aldo) were selected as AR, GR and MR ligands, respectively. They were used at the concentration of 10^−9 M. The APRn agonist and antagonist efficacy for AR, GR and MR were measured as described above for PR. The results are the mean±SEM of three independent experiments.
Transfection assays were performed in HEK 293T cells by using expression vectors for the hAR, hGR and hMR and the GRE2-Luc reporter used for the PR transactivation assays.

[2] = HEK293T transiently expressing hGR, mean±SEM

Row | SMILES | GR Antagonist efficacy (%) [1, 2] | Emax [1, 2] | melting point | Emax [1]
1 | CC(=O)[C@H]1CC[C@H]2[C@@H]3CC=C4C[C@@H](F)CC[C@]4(C)[C@H]3CC[C@]12C [APR-16, 3β-Fluoropregn-5-en-20-one] | 0.1 ± 2.2% | 0.25 ± 0.02% | 166 to 167 °C | 
2 | C[C@@H]1CCC2C3CC=C4C[C@@H](F)CC[C@]4(C)C3CC[C@]2(C)[C@H]1F (stereo partly drawn) [APR-19, 3β,17α-Difluoro-17α-methyl-D-Homo-pregn-5-ene] | −3.5 ± 1.4% |  |  | 0.26 ± 0.05%
3 | CC#C[C@]1(O)CCC2C3CC[C@H]4CCCC[C@]4(C)C3CC[C@@]21C (stereo partly drawn) [APR-42, 17α-(1-Propynyl)-5α-androstan-17β-ol] | 4.4 ± 3.3% | 0.22 ± 0.07% | 150 to 151 °C | 
4 | CC#C[C@]1(O)CCC2C3CC[C@H]4C[C@@H](F)CC[C@]4(C)C3CC[C@@]21C (stereo partly drawn) [APR-43, 3β-Fluoro-17α-(1-propynyl)-5α-androstan-17β-ol] | −9.0 ± 1.7% |  | 139 to 140 °C | 0.17 ± 0.05%
5 | C[C@]12CCC3C(CC=C4C[C@@H](F)CC[C@@H]43)C1CCC2=O (stereo partly drawn) [APR-47, 3β-Fluoro-19-nor-androst-5-en-17-one] | 1.5 ± 4.3% |  | 102 to 103 °C | 0.16 ± 0.02%
6 | CC#C[C@]1(O)CCC2C3CC=C4C[C@@H](F)CC[C@@H]4C3CC[C@@]21C (stereo partly drawn) [APR-51, 3β-Fluoro-17α-(1-propynyl)-19-nor-androst-5-en-17β-ol] | 19.3 ± 7.3% |  | 72 to 73 °C | 0.29 ± 0.08%
7 | CC#C[C@]1(O)CCC2C3CC[C@H]4CCCC[C@@H]4C3CC[C@@]21C (stereo partly drawn) [APR-54, 17α-(1-Propynyl)-19-nor-5-androstan-17β-ol] | −0.1 ± 3.3% | 0.15 ± 0.02% |  | 
